Experimental data taken from ChEMBL document CHEMBL1201862, “PubChem BioAssay data set” (2004).
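Cells were grown in 96-well plates and exposed to each compound for 48 hours at five concentrations; endpoints were interpolated linearly between bracketing concentrations, or set to the highest concentration if not reached. GI50 marks 50% less growth.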 Activity calls are given as the source filed them. Cut-off read from the data, not from the text of the source: active = GI50 up to about 1.1 µM and inactive = higher.

Tests used:
Test in all cases: growth of human tumour cells (NCI), 48 h
SK-MEL-2 = tested on: SK-MEL-2
IGROV-1 = tested on: IGROV-1
SK-MEL-28 = tested on: SK-MEL-28
SNB-75 = tested on: SNB-75
ACHN = tested on: ACHN
786-0 = tested on: 786-0
NCI-H226 = tested on: NCI-H226
HOP-18 = tested on: HOP-18
MOLT-4 = tested on: MOLT-4
NCI-H522 = tested on: NCI-H522
TK-10 = tested on: TK-10
K562 = tested on: K562
MCF7 = tested on: MCF7
SK-OV-3 = tested on: SK-OV-3
SF-268 = tested on: SF-268
CCRF-CEM = tested on: CCRF-CEM
HOP-62 = tested on: HOP-62
OVCAR-5 = tested on: OVCAR-5
MDA-MB-435 = tested on: MDA-MB-435
BT-549 = tested on: BT-549

SMILES | GI50 (SK-MEL-2) | GI50 (IGROV-1) | GI50 (SK-MEL-28) | GI50 (SNB-75) | GI50 (ACHN) | GI50 (786-0) | GI50 (NCI-H226) | GI50 (HOP-18) | GI50 (MOLT-4) | GI50 (NCI-H522) | GI50 (TK-10) | GI50 (K562) | GI50 (MCF7) | GI50 (SK-OV-3) | GI50 (SF-268) | GI50 (CCRF-CEM) | GI50 (HOP-62) | GI50 (OVCAR-5) | GI50 (MDA-MB-435) | GI50 (BT-549)
COc1cc(CC(C)N)ccc1O (stereo not drawn) | > 100 µM (inactive) | > 100 µM (inactive) | > 100 µM (inactive) | > 100 µM (inactive) | > 100 µM (inactive) | > 100 µM (inactive) | > 100 µM (inactive) | > 100 µM (inactive) | > 100 µM (inactive) | > 100 µM (inactive) | > 100 µM (inactive) | > 100 µM (inactive) | > 100 µM (inactive) | > 100 µM (inactive) | > 100 µM (inactive) | > 31.6 µM (inactive) | > 100 µM (inactive) | > 100 µM (inactive) | – | –
O=S(=O)(O)c1cc(O)c2c(O)c(/N=N/c3ccc(/C=C/c4ccc(/N=N/c5c(S(=O)(=O)O)cc6cc(S(=O)(=O)O)cc(O)c6c5O)cc4S(=O)(=O)O)c(S(=O)(=O)O)c3)c(S(=O)(=O)O)cc2c1 | > 100 µM (inactive) | > 100 µM (inactive) | > 100 µM (inactive) | > 100 µM (inactive) | > 100 µM (inactive) | > 100 µM (inactive) | > 100 µM (inactive) | > 100 µM (inactive) | > 100 µM (inactive) | > 100 µM (inactive) | > 100 µM (inactive) | > 100 µM (inactive) | – | > 100 µM (inactive) | > 100 µM (inactive) | > 100 µM (inactive) | > 100 µM (inactive) | > 100 µM (inactive) | – | –
COc1cc(C2c3cc4c(cc3[C@@H](Nc3ccc(F)cc3)C3COC(=O)[C@H]23)OCO4)cc(OC)c1O (stereo partly drawn) | 6.49 µM (inactive) | 5.31 µM (inactive) | 7.69 µM (inactive) | 1.91 µM (inactive) | 0.476 µM (active) | 1.47 µM (inactive) | 0.897 µM (active) | 10.6 µM (inactive) | 0.0535 µM (active) | 2.88 µM (inactive) | 4.88 µM (inactive) | 3.87 µM (inactive) | 0.408 µM (active) | 3.45 µM (inactive) | 3.17 µM (inactive) | – | 0.635 µM (active) | 5.3 µM (inactive) | 4.17 µM (inactive) | 2.61 µM (inactive)
O=C1C2C3CCC(C2C(=O)N1CO)C1C2C(=O)N(CO)C(=O)C2C31 (stereo not drawn) | 36 µM (inactive) | > 76 µM (inactive) | > 58.9 µM (inactive) | 50.6 µM (inactive) | > 44.1 µM (inactive) | 43.3 µM (inactive) | > 81.7 µM (inactive) | 13.7 µM (inactive) | 25.1 µM (inactive) | 65.9 µM (inactive) | > 100 µM (inactive) | 35.2 µM (inactive) | – | > 100 µM (inactive) | > 53.5 µM (inactive) | 19.1 µM (inactive) | > 100 µM (inactive) | > 100 µM (inactive) | – | –
CC1=C2C(=O)O[C@@H](c3ccoc3)[C@]2(C)CCC1 [FRAXINELLONE] | > 100 µM (inactive) | > 100 µM (inactive) | > 100 µM (inactive) | 77.1 µM (inactive) | > 100 µM (inactive) | > 100 µM (inactive) | > 100 µM (inactive) | > 100 µM (inactive) | > 100 µM (inactive) | > 100 µM (inactive) | > 100 µM (inactive) | > 100 µM (inactive) | – | > 100 µM (inactive) | > 100 µM (inactive) | > 100 µM (inactive) | > 100 µM (inactive) | > 100 µM (inactive) | – | –
